Values after ≈ are worked out from the molar mass of the structure shown. Like-named read-outs stand apart in the source and are kept apart here. Starred links: 1 amine or outer side, 2 acyl side, 3 side chain; linkers in the order of their positions; H or OH if unused. Positions of bridges follow the written chain, without caps; N, C: chain ends. Non-standard residues stand in square brackets, D forms with d. Residues, ends and D or L forms follow the SMILES beside them. *: point of attachment. X3 = CN(CCCCC(=O)N[C@@H](CS[*:2])C(=O)[*:1])[*:3]; Trp(7-Me) = Cc1cccc2c(C[C@H](N)C(=O)O)c[nH]c12; 2Nal = N[C@@H](Cc1ccc2ccccc2c1)C(=O)O; AEF = NCCOc1ccc(C[C@H](N)C(=O)O)cc1; 3Pal = N[C@@H](Cc1cccnc1)C(=O)O; αMeL = CC(C)C[C@](C)(N)C(=O)O; Suc = O=C(CCC(=O)[*:2])[*:1]; Thp = NC1(C(=O)O)CCOCC1; Me2NCH2CH2 = CN(C)CC*; Aib = CC(C)(N)C(=O)O; Ava = NCCCCC(=O)O; Sar = CNCC(=O)O
What was measured:
[1] = molecular target: T1, human interleukin-23 receptor (recombinant human IL-23R-Fc chimera) (Homo sapiens, UniProt Q5VWK5); test: Human ELISA IL23/IL23R (assay for specific human IL23R antagonists); assay type: binding; settings: Table 10; read-out: Human ELISA IL23/IL23R IC50
T1 construct: Fc (IgG Fc fusion)
Outline: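 Plates coated overnight at 4 °C with human IL23 ([…]), blocked, then serially diluted peptides added with recombinant human IL-23R-Fc (0.1 μg/ml final) for 60 min at room temperature. Bound receptor detected with anti-human IgG1-HRP and fluorogenic peroxidase substrate.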

[2] = Solubility testing of peptides at different pH; assay type: physicochemical; settings: target concentration 1 mg/ml, 2 hours agitation
Outline: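 Solid obtained by drying down DMSO stock was taken up at 1 mg/mL in 50 mM HCl pH 1.2 or 50 mM phosphate pH 6.5, 7.4 or 9.0, agitated gently for 2 h, then filtered (0.45 μm). Solubility by UPLC-UV peak area against a DMSO reference standard curve, corrected for extinction coefficients.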

[3] = Chemical stability assessment of peptides (relative purity loss); assay type: physicochemical; settings: 24 hours at 37° C.; for Chemical stability (relative purity loss) Buffer pH 1.2: 50 mM HCl pH 1.2 + acetonitrile (1:1); for Chemical stability (relative purity loss) Buffer pH 6.5: 50 mM phosphate buffer pH 6.5 + acetonitrile (1:1); for Chemical stability (relative purity loss) Buffer pH 7.4: 50 mM phosphate buffer pH 7.4 + acetonitrile (1:1)
Outline: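 Peptide solutions at 1 mg/ml (purity-corrected) in 1:1 acetonitrile with 50 mM HCl pH 1.2, or 50 mM phosphate pH 6.5 or pH 7.4, held 24 hours at 2° C. and 37° C. Supernatants analysed by UHPLC-UV; relative purity loss taken as percent drop in peak-area purity from 0 to 24 hours at 37° C.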

[4] = tested on: T2, Pepsin; test: Protease stability in simulated gastric fluid (Pepsin-SGF, FaSSGF); assay type: in vitro ADME; settings: simulated gastric fluid with pepsin (Pepsin-SGF), 60 min, 1 μM peptide, 37° C., read-out: FaSSGF 60 (min), remaining percent of peptide
T2 construct: purchased Merck Millipore
Outline: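 Peptides at 1 μM final in pepsin-containing SGF at 37° C, sampled at 0, 60, 120 and 240 min, quenched with ethanol (0.1% HCOOH). Analysed by LCMS/MS; percent remaining from peak area relative to time 0 (set to 100%).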

[5] = tested on: Pancreatin; test: Protease stability in simulated intestinal fluid (Pancreatin-SIF, FaSSIF); assay type: in vitro ADME; settings: 1 μM peptide, 37° C.; for remaining at 1 h, 1 µM: 60 min, read-out: FaSSIF 60 (min), remaining percent of peptide; for remaining at 2 h, 1 µM: 120 min, read-out: FaSSIF 120 (min), remaining percent of peptide; for remaining at 4 h, 1 µM: 240 min, read-out: FaSSIF 240 (min), remaining percent of peptide
Outline: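 Peptide (1 μM final) was incubated at 37° C in simulated intestinal fluid containing pancreatin (1 mg per 10 mL SIF concentrate). Samples were quenched with ethanol/0.1% HCOOH at 0, 60, 120 and 240 min and analysed by LC-MS/MS. Percent remaining is the peak area relative to time 0 (100%).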

[6] = 50 mM HCl buffer, 50 mM HCl pH 1.2, read-out: Solubility Buffer pH 1.2
[7] = 50 mM phosphate buffer pH 6.5, read-out: Solubility Buffer pH 6.5
[8] = 50 mM phosphate buffer pH 7.4, read-out: Solubility Buffer pH 7.4
[9] = 50 mM phosphate buffer pH 9.0, read-out: Solubility Buffer pH 9.0

| SMILES | IC50 [1] | solubility at 2 h [2, 6] | solubility at 2 h [2, 7] | solubility at 2 h [2, 8] | solubility at 2 h [2, 9] | Chemical stability (relative purity loss) Buffer pH 1.2 [3] | Chemical stability (relative purity loss) Buffer pH 6.5 [3] | Chemical stability (relative purity loss) Buffer pH 7.4 [3] | remaining at 1 h, 1 µM [4] | remaining at 1 h, 1 µM [5] | remaining at 2 h, 1 µM [5] | remaining at 4 h, 1 µM [5] |
| --- | --- | --- | --- | --- | --- | --- | --- | --- | --- | --- | --- | --- |
| CC(=O)N[C@H]1CCCCNC(=O)[C@@H]2CSSC[C@H](NC(=O)[C@H](CCC(N)=O)NC(=O)[C@H](Cc3c[nH]c4ccccc34)NC1=O)C(=O)N[C@@H](Cc1ccc(OCCN)cc1)C(=O)N[C@@H](Cc1ccc3ccccc3c1)C(=O)NC(C)(C)C(=O)N[C@H](C(=O)N[C@@H](CC(N)=O)C(=O)NCC(N)=O)CCC(=O)N(C)CCCCC(=O)N2 [compound 15] (Ac-KWQC[AEF][2Nal][Aib]ENG-NH2; linker 1-4-8 via X3) | 0.2 nM | ≥ 970 µg/mL | ≥ 960 µg/mL | ≥ 910 µg/mL | 670 µg/mL (≈ 421 µM) | 14.3% | 2.9% | 5.1% | 30% | 81% | 65% | 43% |
| CC(=O)N[C@H]1CCCCNC(=O)[C@@H]2CSSC[C@H](NC(=O)[C@H](CCC(N)=O)NC(=O)[C@H](Cc3c[nH]c4ccccc34)NC1=O)C(=O)N[C@@H](Cc1ccc(OCCN)cc1)C(=O)N[C@@H](Cc1ccc3ccccc3c1)C(=O)NC1(CCOCC1)C(=O)N[C@H](C(=O)N[C@@H](CC(N)=O)C(=O)NCC(N)=O)CCC(=O)N(C)CCCCC(=O)N2 [compound 16] (Ac-KWQC[AEF][2Nal][Thp]ENG-NH2; linker 1-4-8 via X3) | 0.33 nM | ≥ 1070 µg/mL | ≥ 950 µg/mL | ≥ 1000 µg/mL | 810 µg/mL (≈ 496 µM) | 13.2% | 1.1% | 4.2% | 62% | 83% | 67% | 50% |
| CC(=O)N[C@H]1CCCCNC(=O)[C@@H]2CSSC[C@H](NC(=O)[C@H](CCC(N)=O)NC(=O)[C@H](Cc3c[nH]c4ccccc34)NC1=O)C(=O)N[C@@H](Cc1ccc(OCCN)cc1)C(=O)N[C@@H](Cc1ccc3ccccc3c1)C(=O)NC1(CCOCC1)C(=O)N[C@H](C(=O)N[C@@H](C)C(=O)NCC(N)=O)CCC(=O)N(C)CCCCC(=O)N2 [compound 17] (Ac-KWQC[AEF][2Nal][Thp]EAG-NH2; linker 1-4-8 via X3) | 0.28 nM | ≥ 1030 µg/mL | ≥ 1000 µg/mL | ≥ 970 µg/mL | ≥ 880 µg/mL | 5.6% | 0.0% | 0.0% | 71% | 81% | 75% | 64% |
| CC(=O)N[C@H]1CCCCNC(=O)[C@@H]2CSSC[C@H](NC(=O)[C@H](CCC(N)=O)NC(=O)[C@H](Cc3c[nH]c4ccccc34)NC1=O)C(=O)N[C@@H](Cc1ccc(OCCN)cc1)C(=O)N[C@@H](Cc1ccc3ccccc3c1)C(=O)N[C@@](C)(CC(C)C)C(=O)N[C@H](C(=O)N[C@@H](C)C(=O)NCC(N)=O)CCC(=O)N(C)CCCCC(=O)N2 [compound 18] (Ac-KWQC[AEF][2Nal][αMeL]EAG-NH2; linker 1-4-8 via X3) | 0.71 nM | 10 µg/mL (≈ 6.29 µM) | < 10 µg/mL | < 10 µg/mL | < 10 µg/mL | 11.4% | 0.1% | 0.0% | 60% | 81% | 76% | 76% |
| CC(=O)N[C@H]1CCCCNC(=O)[C@@H]2CSSC[C@H](NC(=O)[C@H](CCC(N)=O)NC(=O)[C@H](Cc3c[nH]c4ccccc34)NC1=O)C(=O)N[C@@H](Cc1ccc(OCCN)cc1)C(=O)N[C@@H](Cc1ccc3ccccc3c1)C(=O)NC(C)(C)C(=O)N[C@H](C(=O)N[C@@H](C)C(=O)N[C@H](CC(C)C)C(N)=O)CCC(=O)N(C)CCCCC(=O)N2 [compound 19] (Ac-KWQC[AEF][2Nal][Aib]EA[dL]-NH2; linker 1-4-8 via X3) | 0.74 nM | 10 µg/mL (≈ 6.24 µM) | 20 µg/mL (≈ 12.5 µM) | < 10 µg/mL | < 10 µg/mL | 7.9% | 0.0% | 0.0% | 79% | 92% | 81% | 76% |
| CC(=O)NCCCC[C@@H]1NC(=O)[C@H](Cc2c[nH]c3c(C)cccc23)NC(=O)[C@H]([C@@H](C)O)NC(=O)[C@H](CC(N)=O)NC(=O)[C@@H]2CSSC[C@H](NC1=O)C(=O)N[C@@H](Cc1ccc(OCCN(C)C)cc1)C(=O)N[C@@H](Cc1ccc3ccccc3c1)C(=O)N[C@@](C)(CC(C)C)C(=O)N[C@H](C(=O)N[C@@H](CC(N)=O)C(=O)N[C@@H](Cc1c[nH]cn1)C(N)=O)CCCCNC(=O)CCC(=O)N2 [compound 23] (CNT[Trp(7-Me)]K(Ac)CY(Me2NCH2CH2)[2Nal][αMeL]KNH-NH2; disulfide 1-6; linker N-10 via Suc) | 0.26 nM | ≥ 970 µg/mL | 980 µg/mL (≈ 536 µM) | 210 µg/mL (≈ 115 µM) | 60 µg/mL (≈ 32.8 µM) | 11.3% | 0.0% | 0.0% | 69% | 79% | 68% | 67% |
| Cc1cccc2c(C[C@@H]3NC(=O)[C@H]([C@@H](C)O)NC(=O)[C@H](CC(N)=O)NC(=O)[C@@H]4CSSC[C@H](NC(=O)[C@H](CC(C)C)NC3=O)C(=O)N[C@@H](Cc3ccc(OCCN(C)C)cc3)C(=O)N[C@@H](Cc3ccc5ccccc5c3)C(=O)NC3(CCOCC3)C(=O)N[C@H](C(=O)N[C@@H](CC(N)=O)C(=O)N[C@@H](Cc3cccnc3)C(=O)N(C)CC(N)=O)CCC(=O)NCCCCC(=O)N4)c[nH]c12 [compound 24] ([Ava]CNT[Trp(7-Me)]LCY(Me2NCH2CH2)[2Nal][Thp]EN[3Pal][Sar]-NH2; disulfide 2-7; lactam N-11) | 0.4 nM | ≥ 1020 µg/mL | ≥ 1100 µg/mL | ≥ 1000 µg/mL | 300 µg/mL (≈ 162 µM) | 7.2% | 0.0% | 0.4% | 84% | 80% | 79% | 76% |
